The record followed here is patent US4368329A, “Process of preparing thiopyrylium sensitizing dyes” (Minnesota Mining and Manufacturing Company, priority 1981, dated 1983).

A short description of the first series: Absorption maximum (λmax) and log ε of the dye in solution. The series is classed as physicochemical. Particulars: CHCl3.
As to `c1ccc(CN(Cc2ccccc2)c2ccc(-c3cc(-c4ccccc4)cc(-c4ccccc4)[s+]3)cc2)cc1` [Example 11], the “log ε max.” value stood at 4.50 and the λ max. came to 602.

With `CN(C)c1ccc(-c2cc(-c3ccccc3)cc(-c3ccccc3)[s+]2)cc1` [Example 5], the “log ε max.” value was 4.77 and the λ max. was 624.

In the case of `CCc1cc(-c2cc(-c3ccccc3)cc(-c3ccccc3)[s+]2)cc(CC)c1N` [Example 18], the “log ε max.” value stood at 4.32 and the λ max. amounted to 602.

As for `Cc1cc(-c2cc(-c3ccccc3)cc(-c3ccccc3)[s+]2)ccc1N` [Example 12], the “log ε max.” value is 4.32 and the λ max. came out at 600.

For `CCN(Cc1ccccc1)c1ccc(-c2cc(-c3ccccc3)cc(-c3ccccc3)[s+]2)cc1` [Example 8], the “log ε max.” value is listed as 4.53 and the λ max. was 620.

For the molecule `CCN(Cc1ccccc1)c1ccc(-c2cc(-c3ccccc3)cc(-c3ccccc3)[s+]2)cc1` [Example 10], the “log ε max.” value stood at 5.05 and the λ max. came to 620.

On to `CNc1ccc(-c2cc(-c3ccccc3)cc(-c3ccccc3)[s+]2)cc1` [Example 4], for which the “log ε max.” value worked out at 4.55 and the λ max. is on record as 633.

`CCN(CC)c1ccc(-c2cc(-c3ccccc3)cc(-c3ccccc3)[s+]2)cc1` [Example 7]: the “log ε max.” value was determined as 4.50 and the λ max. came to 638.

`Nc1ccc(-c2cc(-c3ccccc3)cc(-c3ccccc3)[s+]2)cc1` [Example 2]: the “log ε max.” value is given as 4.34 and the λ max. is recorded as 592.

Turning to `CCN(Cc1ccccc1)c1ccc(-c2cc(-c3ccccc3)cc(-c3ccccc3)[s+]2)cc1` [Example 9], the “log ε max.” value was found to be 5.18 and the λ max. was 615.

As to `Nc1ccc(-c2cc(-c3ccccc3)cc(-c3ccccc3)[s+]2)c(Cl)c1` [Example 27], the “log ε max.” value amounted to 4.00 and the λ max. turned out to be 564.

Regarding `COc1cc(-c2cc(-c3ccccc3)cc(-c3ccccc3)[s+]2)ccc1N` [Example 21], the “log ε max.” value was found to be 4.32 and the λ max. came out at 612.

Turning to `CN(C)c1ccc(-c2cc(-c3ccccc3)cc(-c3ccccc3)[s+]2)cc1` [Example 6], the “log ε max.” value was 4.86 and the λ max. was determined as 622.

With `Nc1ccc(-c2cc(-c3ccccc3)cc(-c3ccccc3)[s+]2)cc1N` [Example 29], the λ max. is 654.

Regarding `COc1cc(-c2cc(-c3ccccc3)cc(-c3ccccc3)[s+]2)c(OC)cc1N` [Example 25], the “log ε max.” value is 4.36 and the λ max. was determined as 602.

As for `Cc1cc(N(C)C)ccc1-c1cc(-c2ccccc2)cc(-c2ccccc2)[s+]1` [Example 16], the λ max. turned out to be 616.

For the molecule `Cc1cc(-c2cc(-c3ccccc3)cc(-c3ccccc3)[s+]2)cc(C)c1N` [Example 17], the “log ε max.” value is reported as 4.32 and the λ max. is recorded as 600.

In the case of `COc1cc(N)ccc1-c1cc(-c2ccccc2)cc(-c2ccccc2)[s+]1` [Example 23], the “log ε max.” value was 4.27 and the λ max. turned out to be 586.

`c1ccc(-c2cc(-c3ccccc3)[s+]c(-c3cc4c5c(c3)CCCN5CCC4)c2)cc1` [Example 31, 2,4-diphenyl-6(julolidin-6-yl) thiopyrylium trifluoromethane sulfonate] displayed a λ max. of 675 nm.

Consider `Cc1cc(N)ccc1-c1cc(-c2ccccc2)cc(-c2ccccc2)[s+]1` [Example 14], for which the “log ε max.” value came to 4.30 and the λ max. turned out to be 564.

On to `c1ccc(-c2cc(-c3ccccc3)[s+]c(-c3ccc(NC4CCCCC4)cc3)c2)cc1` [Example 19], for which the “log ε max.” value stood at 4.31 and the λ max. was 634.

Take `OCCN(CCO)c1ccc(-c2cc(-c3ccccc3)cc(-c3ccccc3)[s+]2)cc1` [Example 26]: the “log ε max.” value came out at 4.31 and the λ max. is recorded as 638.

As to `c1ccc(Nc2ccc(-c3cc(-c4ccccc4)cc(-c4ccccc4)[s+]3)cc2)cc1` [Example 20], the “log ε max.” value amounted to 4.39 and the λ max. stood at 650.

The same series, now with this note: EtOH.
Turning to `Nc1ccc(-c2cc(-c3ccccc3)cc(-c3ccccc3)[s+]2)c(Cl)c1` [Example 28], the “log ε max.” value was 4.06 and the λ max. is reported as 588.

As to `Cc1cc(-c2cc(-c3ccccc3)cc(-c3ccccc3)[s+]2)ccc1N` [Example 13], the “log ε max.” value came out at 4.32 and the λ max. is reported as 596.

As to `COc1cc(-c2cc(-c3ccccc3)cc(-c3ccccc3)[s+]2)ccc1N` [Example 22], the “log ε max.” value came out at 4.19 and the λ max. is 588.

In the case of `COc1cc(N)ccc1-c1cc(-c2ccccc2)cc(-c2ccccc2)[s+]1` [Example 24], the “log ε max.” value is 4.16 and the λ max. worked out at 566.

As to `Nc1ccc(-c2cc(-c3ccccc3)cc(-c3ccccc3)[s+]2)cc1` [Example 1, 2-(4-aminophenyl)-4,6-diphenylthiopyrylium perchlorate], the “log ε max.” value stood at 4.21 and the λ max. stood at 584.

As to `CNc1ccc(-c2cc(-c3ccccc3)cc(-c3ccccc3)[s+]2)cc1` [Example 3], the “log ε max.” value is recorded as 4.38 and the λ max. came out at 596.

As for `Cc1cc(N)ccc1-c1cc(-c2ccccc2)cc(-c2ccccc2)[s+]1` [Example 15], the “log ε max.” value was determined as 4.16 and the λ max. was found to be 556.

The series is the same for the next values; noted with them: Example 1, first band (584); solvent not given.
With `Nc1ccc(-c2cc(-c3ccccc3)cc(-c3ccccc3)[s+]2)cc1` [Example 1, 2-(4-aminophenyl)-4,6-diphenylthiopyrylium perchlorate], the logε stood at 4.21.

The same series, now with this note: Example 1, first band; solvent not given.
Turning to `Nc1ccc(-c2cc(-c3ccccc3)cc(-c3ccccc3)[s+]2)cc1` [Example 1, 2-(4-aminophenyl)-4,6-diphenylthiopyrylium perchlorate], the λ max. is recorded as 584.

Still in this series, the particulars now being: Example 1, second band (367); solvent not given.
On to `Nc1ccc(-c2cc(-c3ccccc3)cc(-c3ccccc3)[s+]2)cc1` [Example 1, 2-(4-aminophenyl)-4,6-diphenylthiopyrylium perchlorate], for which the logε amounted to 4.27.

The same series, now with this note: Example 1, second band; solvent not given.
`Nc1ccc(-c2cc(-c3ccccc3)cc(-c3ccccc3)[s+]2)cc1` [Example 1, 2-(4-aminophenyl)-4,6-diphenylthiopyrylium perchlorate] registered a λ max. of 367.
